Structures can show the parent of a compound that is named as a salt.
Experiments:
[1] = tested on: advanced idiopathic Parkinson's disease complicated by "peak-dose" dyskinesia; assay: Double-blind cross-over study, peak-dose dyskinesia after l-dopa challenge in advanced idiopathic Parkinson's disease; type: in vivo, patients; details: first hour in the "on" state after l-dopa challenge; add-on 2.5 to 10 mg b.i.d. versus placebo
Excerpt: A typical study to investigate the efficacy of the compounds according to the invention for adverse effects in Parkinson's disease is described in the following. 40 patients of either sex with advanced idiopathic Parkinson's disease complicated by "peak-dose" dyskinesia participate in a double-blind, cross-over study. The main inclusion criteria are Hoehn & Yahr stage ≥ 2.5 (lit.: Hoehn H.M. et al, Neurology 1967; 17: 427-442), aged 40-75 years, symptom duration of at least 5 years, and a I-dopa treatment duration of at least 3 years. trans-4-[4-(3-chloro-4-methoxybenzylamino)-benzothieno-[2,3-d]pyrimidin-2-yl]cyclohexanecarboxylic acid sodium or ethanolamine salt or placebo is administered as "add on" to the conventional Parkinson treatment; which is maintained unchanged during the whole study. The dose of blinded medication is titrated over a period of 3 weeks in a range from 2.5 to 10 mg b.i.d. Then the medication is kept constant for 1 week. Before the start of titration and at the end of the treatment period a I-dopa challenge is performed according to P. Damier et al. (Movement Disord,1999, 14 (Suppl. 1), 54-59) using video recording. The main outcome measure of the protocol is the mean score for dyskinesia during the first hour in the "on" state after I-dopa challenge. […]

[2] = tested on: idiopathic Parkinson's disease; assay: Double-blind add-on study in idiopathic Parkinson's disease (UPDRS); type: in vivo, patients; details: add-on 2.5 to 10 mg b.i.d. versus placebo
Excerpt: A typical study to investigate the efficacy of the compounds according to the invention in the treatment of idiopathic Parkinson's disease is described in the following. 180 patients of either sex with idiopathic Parkinson's disease participate in a double-blind study. The main inclusion criteria are Hoehn & Yahr stage ≥ 2.0 (Hoehn H.M. et al, Neurology 1967; 17: 427-442), aged 50-80 years, symptom duration of at least 5 years. Trans-4-[4-(3-chloro-4-methoxybenzylamino)-benzothieno-[2,3-d]pyrimidin-2-yl]cyclohexanecarboxylic acid or placebo is administered as "add on" to the conventional Parkinson treatment, which is maintained unchanged during the whole study. The dose of blinded medication is titrated over a period of 4 weeks in a range from 2.5 to 10 mg b.i.d. Then the medication is kept constant for 1 week. Before the start of titration, at the end of the treatment period and 2 weeks after the end of the tiration period an assessment is performed in each patients using the unified Parkinson's disease rating scale (UPDRS part I to V according to S. Fahn et al., in: Recent developments in Parkinson's disease, vol. 2, MacMillan health information 1987, 153-163). […]

tardive dyskinesia = assay: Double-blind cross-over add-on study in tardive dyskinesia (AIMS); type: in vivo, schizophrenic (DSM-III-R) inpatients; details: add-on to antipsychotic treatment, 2.5 to 20 mg b.i.d., compared with placebo period
Excerpt: Tardive dyskinesia is a common adverse effect of long-term treatment with neuroleptics. A typical study to investigate the efficacy of the compounds according to the invention in tardive dyskinesia is described in the following. 32 schizophrenic (DSM-III-R) inpatients aged 25 - 60 years on long-term stable antipsychotic treatment (duration of at least 5 years) entered the study. Trans-4-[4-(3-chloro-4-methoxybenzylamino)-benzothieno-[2,3-d]pyrimidin-2-yl]cyclohexanecarboxylic acid sodium or ethanolamine salt or placebo is administered as "add on" to the antipsychotic treatment, which is kept constant during the whole study. The dose of blinded medication is titrated over a period of 3 weeks in a range from 2.5 to 20 mg b.i.d. Then the medication is maintained under double-blind conditions for 2 weeks. After a 2-week wash-out period, the test drugs are crossed over. Assessments of tardive dyskinesia by means of the Abnormal Involuntary Movement Scale (AIMS, see obove) and of Parkinsonian extrapyramidal side effects (UPDRS, see above) are made pretreatment and posttreatment.

MSA patients = assay: Placebo-controlled cross-over add-on study in MSA patients (UPDRS); type: in vivo; details: add-on 2.5 to 20 mg b.i.d. versus placebo
Excerpt: A typical study to investigate the efficacy of the compounds according to the invention in MSA patients encompasses 30 patients of either sex with a symptom duration of at least 5 years and a significant reduction of central dopamine receptors in positron emission tomography (PET) scan. The study design is similar to that described above for Parkinson's disease. Trans-4-[4-(3-chloro-4-methoxybenzylamino)-benzothieno-[2,3-d]pyrimidin-2-yl]cyclohexanecarboxylic acid sodium or ethanolamine salt or placebo is titrated as "add on" to the conventional treatment (dose range 2.5 to 20 mg b.i.d.). Before the start of titration and at the end of the treatment period a complete UPDRS assessment is performed in each patient (primary outcome measure). After a 2-week wash-out period the two study arms are crossed over and the protocol is repeated.

COc1ccc(CNc2nc([C@H]3CC[C@H](C(=O)O)CC3)nc3sc4ccccc4c23)cc1Cl [trans-4-[4-(3-chloro-4-methoxybenzylamino)-benzothieno-[2,3-d]pyrimidin-2-yl]cyclohexanecarboxylic acid sodium or ethanolamine salt]
mean dyskinesia scores [1]: significant clinical improvement | UPDRS scores [2]: significant clinical improvement | AIMS scores (tardive dyskinesia): significantly lower than during placebo period | UPDRS (MSA patients): significant clinical improvement
